Data on 3 molecules can be found in patent US5141865A, “Monoclonal antibodies which bind thromboxane A2 receptor antagonists and diagnostic methods based thereon” (priority 1989, dated 1992).

Each structure is given as a SMILES string.

The experiment deals with monoclonal antibody MCTX1. The experiment in a line: Competitive radioimmunoassay (RIA) with MCTX1 and radiolabel-1; standard curve and cross-reactivity. Format: binding, mouse. The conditions noted are these: for percent cross-reactivity with MCTX1: ED50 of cross-reactant relative to ED50 of Compound I x 100, standards and cross-reactants in PBS. As to the method: Sera from immunized mice and media collected from wells containing HAT selected hybridomas were tested for the presence of antibodies recognizing Compound I by RIA. Undiluted media (50 μl) was incubated overnight at 4° C. with PBS (50 μl), normal human sera (50 μl) and [^125 I]-iodohistamine - Compound I (radiolabel-1) in PBS (200 μl, 50,000 CPM). After incubation, 1.0 ml of PEG 8000 (Fisher Scientific, Fairlawn, N.J.) (25% wt/vol) was added as separant; samples were centrigued at room temperature at 2000×g for 10 to 15 minutes and the supernatant decanted. Radioactivity associated with the precipitate was then determined using an APEX automatic gamma counter (ICN Micromedic Systems). Satisfactory zero binding and sensitivity were obtained after an overnight incubation at 4° C.
In order to assay samples for thromboxane A2 receptor antagonist, the same procedure was used, except that 50 μl of sample was used in place of the 50 μl of PBS.
In this regard, for construction of the standard curve and determination of cross-reactivity, standards and cross-reactants were prepared in PBS. Three cross-reactants were examined: the dinor and tetranor, possible metabolites of Compound I, and a related compound, Compound II, which lacks most of the omega side chain (Table 2).
To further characterize the specific structural features (epitope) within Compound I that are recognized by MCTX1, various derivatives of Compound I were tested for their cross-reactivity. The percent cross-reactivity was determined by dividing the ED50 of Compound I into the ED50 of the cross-reactants and multiplying the result by 100. […] Two potential metabolites of Compound I, the dinor and tetranor derivatives, had cross-reactivities of 66% and 17.6%, respectively. Both of these compounds have shortened alpha-side chains and no modifications in their omega-side chain. The extent of cross-reactivityof both alpha-side chain metabolites became less as the alpha-side chain became more truncated. […]

As to `COC(=O)CCC=CCC1C2CCC(O2)C1CN` (stereo not drawn) [Compound II], the “recognition by MCTX1 (cross-reactivity test)” value (cross-reactant prepared in PBS) is “not recognized by MCTX1”.

Consider `CCCCCCC(=O)NCC(=O)NCC1C2CCC(O2)C1CC=CCC(=O)O` (stereo not drawn) [dinor], for which the “percent cross-reactivity with MCTX1” value is listed as 66%.

Turning to `CCCCCCC(=O)NCC(=O)NC[C@H]1[C@@H](CCC(=O)O)[C@@H]2CC[C@H]1O2` [tetranor], the “percent cross-reactivity with MCTX1” value came out at 17.6%.
